Measurements published in patent publication US8877908B2, “Stimulus-responsive apta chelamers” (The Administrators of the Tulane Educational Fund, priority 2008, dated 2014).
Like-named read-outs stand apart in the source and are kept apart here.

How the values were obtained:
streptavidin = biological target: T1, streptavidin (Streptomyces avidinii, UniProt P22629); test: Streptavidin-immobilized microplate assay, hemin/H2O2 oxidation of ABTS, absorbance at 414 nm; settings: 5 μM ODN with 5 μM hemin, 1 h incubation, washed, ABTS 2 mM
T1 construct: purchased Thermo Fisher Scientific (NUNC)
T1 sequence (P22629 25-183): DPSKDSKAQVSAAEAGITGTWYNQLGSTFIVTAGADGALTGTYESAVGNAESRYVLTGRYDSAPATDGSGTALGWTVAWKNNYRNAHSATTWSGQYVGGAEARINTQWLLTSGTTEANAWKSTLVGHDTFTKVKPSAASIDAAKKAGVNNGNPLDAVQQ
Procedure: As shown schematically in FIG. 28, streptavidin-immobilized, NUNC 96 well microplates were obtained from Thermo Fisher Scientific. Each well was pre-washed three times with 100 μL of PBS buffer (20 mM NaH2PO4, 30 mM Na2HPO4, 100 mM NaCl, pH 7.4). To each well, 100 μL of sample ODNs (5 μM, previously annealed from 95° C.) with hemin (5 μM) in Hepes buffer (50 mM HEPES, 20 mM KCl, 200 mM NaCl, 1% DMSO, 0.05% Triton X-100, pH 8.0) was incubated for one hour with gentle agitation. Sample ODN solutions were then removed by inversion, and each well washed three times with PBS buffer. Plate wells were then refilled with 98.5 μL of the Hepes buffer containing ABTS (2,2′-azino-bis(3-ethylbenzthiazoline-6-sulphonic acid)). Hydrogen peroxide (2 mM) was then introduced to each well bringing the total assay volume to 100 μL and total ABTS concentration to 2 mM. Visible light absorbance at 414 nm was then immediately followed on a Molecular Devices SpectraMax 190 microplate reader (FIG. 27).

thrombin = thrombin (Homo sapiens, UniProt P00734); settings: literature; cited from earlier work
bovine trypsin = biological target: T2, bovine trypsin (Bos taurus, UniProt P00760); test: Fluorescence anisotropy titration of fluorescein-labelled ODNs with increasing trypsin; format: binding; settings: for change of trypsin affinity on lowering salt to 5 mM KCl, 25 mM Hepes, pH 7.4: low salt versus high salt; for Kd: preformed quadruplex, 2 nM ODN
T2 construct: purchased Sigma Aldrich; host or cells: bovine pancreas
T2 sequence (P00760 24-246): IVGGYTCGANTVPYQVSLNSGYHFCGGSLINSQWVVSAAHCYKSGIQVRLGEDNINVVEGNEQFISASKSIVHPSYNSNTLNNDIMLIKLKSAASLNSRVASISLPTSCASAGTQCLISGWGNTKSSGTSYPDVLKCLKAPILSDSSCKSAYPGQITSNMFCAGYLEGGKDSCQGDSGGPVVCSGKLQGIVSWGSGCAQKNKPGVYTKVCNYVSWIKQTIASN
Procedure: The next step was to determine whether the intramolecular quadruplex conformation of AC 1 leads to enhanced affinity towards trypsin as a result of bidentate binding (FIG. 15, pathway A). […] AC 1 and ODNs 2 through 4 were first incubated in the presence of potassium cations to induce the quadruplex fold. The preformed quadruplexes were then incubated with increasing concentrations of trypsin at 25° C. (25 mM KCl, 200 mM NaCl, 25 mM Hepes, pH 7.4) for 30 min. Preliminary fluorescence anisotropy studies were conducted to ascertain that equilibrium was reached after 30 min and that there was no significant quenching of the fluorescein emission. The anisotropy associated with the fluorescein emission was followed at 525 nm (excitation at 495 nm). The resultant binding isotherms (FIG. 14) were fitted using non-linear regression to a 1:1 binding stoichiometry. […] In fact, the dissociation constant was determined to be 8.1×10^−7 M, a value that indicates a greater than 100 and 30 fold binding enhancement when compared to monodentate controls ODN 3 and ODN 2, respectively. […] This dissociation constant is attributed to non-specific interactions between bovine trypsin and ODN 4, since trypsin (pI=10.5) is positively charged at pH=7.4 and thus can potentially associate with the negatively charged DNA backbone. Support for such non-specific interactions comes from incubation of trypsin with ODN 4 where the concentration of salts were decreased to only 5 mM KCl, 25 mM Hepes, pH 7.4 (see, e.g., FIG. 23).
Immediately prior to each fluorescence polarization experiment, fresh stock solutions of trypsin were made in Hepes buffer (20 mM KCl, 200 mM NaCl, 25 mM Hepes, pH 7.4). Concentration of the trypsin in the stock solutions were determined using ultra-violet absorbance at 280 nm (ε=37669 M^−1cm^−1). Serial dilutions from the stock solution of trypsin were made into eppendorf tubes (spanning a range from 1×10^−9 to 1×10^−3M). To these trypsin-containing tubes were added aliquots of ODNs, such that the total concentration of ODNs in each eppendorf tube was 2 nM. After gently agitating, 150 uL from each eppendorf was transferred to respective borosilicate glass culture tubes and the tubes were allowed to equilibrate for 30 minutes at 25° C. (preliminary fluorescence anisotropy studies were conducted to ascertain that equilibrium was reached after 30 min and that there was no significant quenching of the fluorescein emission). Fluorescence polarization at 25° C. was determined on a Molecular Probes Beacon 2000 Fluorescence Polarization Instrument, using 495 and 525 nm narrow band pass filters for excitation and emission, respectively. Values of millipolarization (mP) from the Beacon 2000 were converted to millianisotropy (mA) using equation 1, where A is the anisotropy value, and P is the observed polarization.
1:1 (trypsin:ODN) binding mode: Anisotropy was plotted against trypsin (receptor protein) concentration and fitted to Equation 2 (a single-site model without receptor depletion), wherein Af is the anisotropy of the unbound ODN, Ab is the anisotropy of the bound ODN, Or is the total added ODN concentration (in M units), and Kd is the dissociation constant. Non-linear regression analysis using Origin 8.0 software was used for fitting the experimental data.
Cooperative binding mode: Binding equilibrium best described as cooperative binding was fitted to the Hill equation (Equation 3), where the fluorescence quantum yield of fluorescein is constant and the ODN substrate is limiting. R is the total protein concentration, R1/2 (or [trypsin]1/2) is the protein concentration required for half-maximal binding, and h is the Hill coefficient.

[1] = 5 mM KCl, 25 mM Hepes, pH 7.4, read-out: dissociation constant (Kd) for trypsin, low-salt conditions
[2] = high salt (20 or 25 mM KCl, 200 mM NaCl, 25 mM Hepes, pH 7.4), 25° C., 1:1 fit, read-out: dissociation constant (Kd) for trypsin

Substance	change of trypsin affinity on lowering salt to 5 mM KCl, 25 mM Hepes, pH 7.4 (bovine trypsin)	Kd (bovine trypsin; [1])	Kd (bovine trypsin; [2])	further results
AC-X1: hemin binding aptamer core (SEQ ID NO:9) with biotin as small molecule handle for streptavidin (TGGGTAGGGCGGGTTGGGT; DNA, backbone and methylation of C not given here; biotin tethered via linker)				absorbance change at 414 nm versus control HBA well (streptavidin): greater absorbance change
thrombin binding aptamer: core sequence 5′-GGTTGGTGTGGTTGG-3′ (SEQ ID NO:6)				dissociation constant (Kd) of complex with thrombin (thrombin): micromolar range
AC 1 (TTGGTTGGTGTGGTTGGT; 5' dT fluorescein conjugate, ba and ipt arms attached, further chemistry not given here)	only slight change in affinity	2.8 µM	0.81 µM	potency of quadruplex form in binding trypsin relative to double helical structure (duplex 1:5) (bovine trypsin; Kd of quadruplex versus [trypsin]1/2 of duplex): about 20 times; binding enhancement compared to monodentate control ODN 2 (bovine trypsin; ratio of Kd values, high salt): > 30 fold; binding enhancement compared to monodentate control ODN 3 (bovine trypsin; ratio of Kd values, high salt): greater than 100 fold
ODN 2 (TTGGTTGGTGTGGTTGGT; 5' ba arm attached, fluorescein-dT conjugate, further chemistry not given here)			29 µM	
ODN 3 (TTGGTTGGTGTGGTTGGT; 3' ipt arm attached, fluorescein-dT conjugate, further chemistry not given here)			90 µM	
ODN 4: 5′-TTGGTTGGTGTGGTTGGT-3′, no arms, 5′ terminal dT bearing fluorescein; negative control (listed as DNA, chemistry not fully specified)	significant decrease in the Kd	31 µM	2900 µM	
